Assay results reported in US8288419B2, “Aminopyrazole derivatives” (Actelion Pharmaceuticals, Ltd, priority 2007, dated 2012).

Molecular target: T1, recombinant human ALX receptor (Homo sapiens, UniProt P25090)
T1 construct: expressed in transfected cells; host or cells: HEK293 (HEK293-hALXR-Gα16)
T1 sequence (P25090 1-351): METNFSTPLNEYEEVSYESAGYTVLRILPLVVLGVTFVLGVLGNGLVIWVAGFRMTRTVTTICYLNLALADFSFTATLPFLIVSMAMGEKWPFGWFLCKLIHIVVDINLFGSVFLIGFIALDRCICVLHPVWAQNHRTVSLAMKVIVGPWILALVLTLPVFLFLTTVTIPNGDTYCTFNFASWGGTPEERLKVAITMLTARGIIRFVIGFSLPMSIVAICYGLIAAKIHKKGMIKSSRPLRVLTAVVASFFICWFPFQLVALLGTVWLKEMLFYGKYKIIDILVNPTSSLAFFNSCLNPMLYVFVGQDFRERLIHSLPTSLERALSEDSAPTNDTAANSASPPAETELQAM
Assay: Intracellular calcium measurements (FLIPR), ALX receptor agonistic activity
Assay type: cell-based
Conditions: HEK293-hALXR-Gα16 cells, Fluo-4 calcium fluorescence, normalized to 10 nM WKYMVm
Procedure: The ALX receptor agonistic activity of the compounds of formula (I) is determined in accordance with the following experimental method.
Intracellular Calcium Measurements:
Cells expressing recombinant human ALX receptor and the G-protein Gα16 (HEK293-hALXR-Gα16) were grown to 80% confluency in Growing Medium (GM). […] Stock solutions of test compounds were made up at a concentration of 10 mM in DMSO, and serially diluted in AB to concentrations required for activation dose response curves. WKYMVm (Phoenix Peptides) was used as a reference agonist. A FLIPR384 instrument (Molecular Devices) was operated according to the manufacturer's standard instructions, adding 4 μl of test compound dissolved at 10 mM in DMSO and diluted prior to the experiment in assay buffer to obtain the desired final concentration. Changes in fluorescence were monitored before and after the addition of test compounds at lex=488 nm and lem=540 nm. Emission peak values above base level after compounds addition were exported after base line subtraction. Values were normalized to high-level control (WKYMVm compound, 10 nM final concentration) after subtraction of the base line value (AB addition). The program XLlfit 3.0 (IDBS) was used to fit the data to a single site dose response curve of the equation (A+((B−A)/(1+((C/x)^D)))) and to calculate the EC50 values.

SMILES | EC50
CC(=O)c1cncc(Cn2cc(NC(=O)OCc3ccccc3Cl)cn2)c1 [Example 382, [1-(5-Acetyl-pyridin-3-ylmethyl)-1H-pyrazol-4-yl]-carbamic acid 2-chloro-benzyl ester] | 401 nM
CC(=O)c1ccc(Cn2cc(NC(=O)c3nc(C)sc3-c3cccc(C)c3)cn2)s1 [Example 395, 2-Methyl-5-m-tolyl-thiazole-4-carboxylic acid [1-(5-acetyl-thiophen-2-ylmethyl)-1H-pyrazol-4-yl]-amide] | 170 nM
CC(=O)c1ccc(Cn2cc(NC(=O)c3ncoc3-c3cccc(C#N)c3)cn2)s1 [Example 397, 5-(3-Cyano-phenyl)-oxazole-4-carboxylic acid [1-(5-acetyl-thiophen-2-ylmethyl)-1H-pyrazol-4-yl]-amide] | 23 nM
CC(=O)c1ccc(Cn2cc(NC(=O)c3nc(C4CC4)oc3-c3ccccc3)cn2)s1 [Example 401, 2-Cyclopropyl-5-phenyl-oxazole-4-carboxylic acid [1-(5-acetyl-thiophen-2-ylmethyl)-1H-pyrazol-4-yl]-amide] | 49 nM
CC(=O)c1cc(Cn2cc(NC(=O)OCc3ccccc3Cl)cn2)ccn1 [Example 407, [1-(2-Acetyl-pyridin-4-ylmethyl)-1H-pyrazol-4-yl]-carbamic acid 2-chloro-benzyl ester] | 58 nM
CC(=O)c1cc(Cn2cc(NC(=O)c3ncoc3-c3ccccc3)cn2)cs1 [Example 408, 5-Phenyl-oxazole-4-carboxylic acid [1-(5-acetyl-thiophen-3-ylmethyl)-1H-pyrazol-4-yl]-amide] | 83 nM
CC(=O)c1nc(Cn2cc(NC(=O)OCc3ccccc3Cl)cn2)cs1 [Example 409, [1-(2-Acetyl-thiazol-4-ylmethyl)-1H-pyrazol-4-yl]-carbamic acid 2-chloro-benzyl ester] | 805 nM
CC(=O)c1ccc(Cn2cc(NC(=O)c3ncoc3-c3ccnc(F)c3)cn2)o1 [Example 412, 5-(2-Fluoro-pyridin-4-yl)-oxazole-4-carboxylic acid [1-(5-acetyl-furan-2-ylmethyl)-1H-pyrazol-4-yl]-amide] | 179 nM
CC(=O)c1ccc(Cn2cc(NC(=O)c3ncoc3-c3ccno3)cn2)o1 [Example 420, 5-Isoxazol-5-yl-oxazole-4-carboxylic acid [1-(5-acetyl-furan-2-ylmethyl)-1H-pyrazol-4-yl]-amide] | 388 nM
CC(=O)c1ccc(Cn2cc(NC(=O)c3nc(C(C)C)oc3-c3ccccc3)cn2)o1 [Example 424, 2-Isopropyl-5-phenyl-oxazole-4-carboxylic acid [1-(5-acetyl-furan-2-ylmethyl)-1H-pyrazol-4-yl]-amide] | 114 nM
CC(=O)c1cnc(Cn2cc(NC(=O)c3ncoc3-c3ccccc3)cn2)s1 [Example 435, 5-Phenyl-oxazole-4-carboxylic acid [1-(5-acetyl-thiazol-2-ylmethyl)-1H-pyrazol-4-yl]-amide] | 445 nM
CC(=O)c1ncc(Cn2cc(NC(=O)c3ncoc3-c3ccccc3)cn2)s1 [Example 437, 5-Phenyl-oxazole-4-carboxylic acid [1-(2-acetyl-thiazol-5-ylmethyl)-1H-pyrazol-4-yl]-amide] | 99 nM
CC(=O)c1ncc(Cn2ccc(NC(=O)c3ncoc3-c3ccccc3)n2)o1 [Example 440, 5-Phenyl-oxazole-4-carboxylic acid [1-(2-acetyl-oxazol-5-ylmethyl)-1H-pyrazol-3-yl]-amide] | 143 nM
CC(=O)c1csc(Cn2cc(NC(=O)OCc3ccccc3Cl)cn2)c1 [Example 442, [1-(4-Acetyl-thiophen-2-ylmethyl)-1H-pyrazol-4-yl]-carbamic acid 2-chloro-benzyl ester] | 94 nM
CC(F)(F)c1csc(Cn2ccc(NC(=O)c3ncoc3-c3ccccc3)n2)n1 [Example 461, 5-Phenyl-oxazole-4-carboxylic acid {1-[4-(1,1-difluoro-ethyl)-thiazol-2-ylmethyl]-1H-pyrazol-3-yl}-amide] | 1090 nM
CC(=O)c1nc(Cn2cc(NC(=O)OCc3ccccc3Cl)cn2)co1 [Example 466, [1-(2-Acetyl-oxazol-4-ylmethyl)-1H-pyrazol-4-yl]-carbamic acid 2-chloro-benzyl ester] | 34 nM

Further compounds by falling EC50, results first:

EC50 | SMILES
727 nM | CC(=O)c1ccc(Cn2ccc(NC(=O)c3nc(CN)oc3-c3ccccc3)n2)o1 [Example 390, 2-Aminomethyl-5-phenyl-oxazole-4-carboxylic acid [1-(5-acetyl-furan-2-ylmethyl)-1H-pyrazol-3-yl]-amide]
486 nM | CS(=O)(=O)c1ccc(Cn2cc(NC(=O)c3ncoc3-c3ccccc3)cn2)o1 [Example 413, 5-Phenyl-oxazole-4-carboxylic acid [1-(5-methanesulfonyl-furan-2-ylmethyl)-1H-pyrazol-4-yl]-amide]
237 nM | CC(=O)c1ccc(Cn2ccc(NC(=O)c3nc(C)oc3-c3cccc(OC(F)(F)F)c3)n2)s1 [Example 392, 2-Methyl-5-(3-trifluoromethoxy-phenyl)-oxazole-4-carboxylic acid [1-(5-acetyl-thiophen-2-ylmethyl)-1H-pyrazol-3-yl]-amide]
200 nM | CC(=O)c1ccc(Cn2cc(NC(=O)c3nc(Cc4ccccc4)oc3-c3ccccc3)cn2)o1 [Example 432, 2-Benzyl-5-phenyl-oxazole-4-carboxylic acid [1-(5-acetyl-furan-2-ylmethyl)-1H-pyrazol-4-yl]-amide]
182 nM | CC(=O)c1csc(Cn2ccc(NC(=O)c3ncoc3-c3cccc(N(C)C)c3)n2)n1 [Example 449, 5-(3-Dimethylamino-phenyl)-oxazole-4-carboxylic acid [1-(4-acetyl-thiazol-2-ylmethyl)-1H-pyrazol-3-yl]-amide]
79 nM | CC(=O)c1csc(Cn2cc(NC(=O)/C=C/c3ccc(C(F)(F)F)cc3)cn2)n1 [Example 389, (E)-N-[1-(4-Acetyl-thiazol-2-ylmethyl)-1H-pyrazol-4-yl]-3-(4-trifluoromethyl-phenyl)-acrylamide]
73 nM | CC(=O)c1cnc(Cn2ccc(NC(=O)c3ncoc3-c3ccccc3)n2)o1 [Example 465, 5-Phenyl-oxazole-4-carboxylic acid [1-(5-acetyl-oxazol-2-ylmethyl)-1H-pyrazol-3-yl]-amide]
66 nM | CC(=O)c1ccc(Cn2cc(NC(=O)c3ncoc3-c3cccc(C(F)(F)F)n3)cn2)o1 [Example 419, 5-(6-Trifluoromethyl-pyridin-2-yl)-oxazole-4-carboxylic acid [1-(5-acetyl-furan-2-ylmethyl)-1H-pyrazol-4-yl]-amide]
61 nM | COCc1nc(C(=O)Nc2cnn(Cc3ccc(C(C)=O)o3)c2)c(-c2ccccc2)o1 [Example 416, 2-Methoxymethyl-5-phenyl-oxazole-4-carboxylic acid [1-(5-acetyl-furan-2-ylmethyl)-1H-pyrazol-4-yl]-amide]
43 nM | CC(=O)CCCCn1cc(NC(=O)OCc2nc3ccccc3s2)cn1 [Example 462, [1-(5-Oxo-hexyl)-1H-pyrazol-4-yl]-carbamic acid benzothiazol-2-ylmethyl ester]
